Assay results as given in patent publication US20260306526A1, “COMBINATION THERAPY FOR BACTERIAL INFECTIONS COMPRISING ZINC-CHELATOR, BETA-LACTAM ANTIBIOTIC AND SERINE BETA-LACTAMASE INHIBITOR” (priority 2023, published 2026).
Where “and” joins values, the source holds several entries; their conditions need not be identical. Identical values can stand only once.

System: Pseudomonas aeruginosa ST111
Test: MIC determination, fixed concentration of sBLI (Examples 27-30)
Format: cell-based
Conditions: VIM-2, OXA-395, PDC-3, caMHB, 29.4 μM Zn2+
Description: Antimicrobial susceptibility testing (AST) by broth microdilution (MIC determination) was performed according to The European Committee on Antimicrobial Susceptibility Testing (EUCAST) guidelines (see Reading guide for broth microdilution Version 5.0, 2024: https://www.eucast.org).
For combinations containing meropenem as the antibiotic, Sensititre™ FINMER meropenem 64-0.03 μg/mL plates (Thermo Fischer Diagnostics custom plates; YFINMER) were used in most of the experiments. For other antibiotics (and for meropenem whenever a higher start concentration than 64 μg/mL was needed) sterile clear round bottom polystyrene (non-treated) 96-well microplates (Corning 3788) were used for making serial two-fold dilutions of the antibiotic in cation-adjusted Mueller Hinton II broth (caMHB; Thermo Scientific, T3462, containing 29.4 μM Zn^2+ or MILLIPORE, 90922-500G, containing 5.6 μM Zn^2+), across the columns of the microtiter plate (128-0.06 μg/mL; columns 1-12).
The checkerboard plates were all modified by adding a serine β-lactamase inhibitor (sBLI) at a fixed concentration of 16 μg/mL. Additionally, the zinc chelator was added at various fixed concentrations. […]

CN(C[C@H](O)[C@@H](O)[C@H](O)[C@H](O)CO)C(=O)c1ccc(CN(Cc2ccccn2)Cc2ccccn2)nc1 [zinc chelator]
Synergy with the zinc chelator observed at concentration (Example 27, with PIP and AVI 16 μg/mL): 16 µg/mL
Synergy with the zinc chelator observed at concentration (Example 28, with PIP and TAZ 16 μg/mL): 16 µg/mL and 8 µg/mL
